Columns and labels:
ERα = target: T1, ERα (Homo sapiens, UniProt P03372); test: Protein degradation assay: ERα in MCF-7 cells via western blot; format: cell-based; conditions: 6 h; for ERα Protein Degradation 1 nM: 1 nM compound; for ERα Protein Degradation 10 nM: 10 nM compound; for ERα Protein Degradation 100 nM: 100 nM compound
T1 construct: degrading an ERα in MCF-7 cells via a western blot; endogenous in cells; host or cells: MCF-7
T1 sequence (P03372 1-595): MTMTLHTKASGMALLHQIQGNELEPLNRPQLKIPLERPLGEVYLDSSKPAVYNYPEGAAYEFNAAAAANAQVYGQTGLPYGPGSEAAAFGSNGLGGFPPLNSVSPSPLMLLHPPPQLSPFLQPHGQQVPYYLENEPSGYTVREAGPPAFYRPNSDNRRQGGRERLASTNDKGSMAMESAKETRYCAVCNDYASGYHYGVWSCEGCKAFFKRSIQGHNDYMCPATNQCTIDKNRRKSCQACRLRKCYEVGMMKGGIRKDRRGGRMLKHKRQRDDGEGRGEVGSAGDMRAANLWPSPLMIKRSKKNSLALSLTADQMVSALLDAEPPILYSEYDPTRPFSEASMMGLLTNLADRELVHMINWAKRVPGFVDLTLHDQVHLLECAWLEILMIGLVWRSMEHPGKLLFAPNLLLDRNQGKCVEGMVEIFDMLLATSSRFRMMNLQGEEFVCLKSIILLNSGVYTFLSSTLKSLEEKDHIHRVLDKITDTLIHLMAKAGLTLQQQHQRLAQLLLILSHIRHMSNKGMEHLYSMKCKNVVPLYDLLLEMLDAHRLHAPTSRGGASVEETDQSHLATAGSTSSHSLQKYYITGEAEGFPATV
Experimental: A compound provided herein was assessed for its activity in degrading an ERα in MCF-7 cells via a western blot. The MCF7 cells were cultured at 37° C. in a humidified 5% C02 environment in MEM supplemented with 10% FBS with insulin. The cells were seeded in 12-well plates at a density of 300,000 cells per well in maintenance media. Cells were treated with the compound at predetermined concentrations (e.g., 1 nM, 10 nM, 100 nM, and 1 μM) for 6 h. The cells were then washed in PBS and the whole cells were lysed in a cell lysis buffer and incubated for 15 minutes on ice. Cell debris was removed by high-speed centrifugation and the cleared whole cell lysates were prepared for further analysis by a western blot. The whole cell protein extracts were separated on SDS-polyacrylamide gels, transferred to nitrocellulose membranes, and probed with primary antibodies, including anti-ERα antibody and GAPDH antibody for loading control. The membranes were subsequently washed and probed with secondary antibodies for chemiluminescence, followed by imaging on a BIORAD CHEMIDOC Imaging System. The results are summarized in Table 2, where “A” represents a percentage degradation value of no less than 50%; “B” represents a percentage degradation value of less than 50% and no less than 25%; “C” represents a percentage degradation value of less than 25% and no less than 10%; and “D” represents a percentage degradation value of less than 10%.

MCF7 cells = test: Cell viability assay ([…]-GLO, 6-day treatment); format: cell-based; conditions: Homo sapiens, MCF7, 144 h; MCF-7 cells, 6 days, CTG; read-out: Inhibition of Cancerous Cells IC50 MCF-7
Experimental: A compound provided herein was evaluated for its anticancer activity in MCF7 and T47D cells. MCF7 and T47D cells were cultured at 37° C. in a humidified 5% C02 environment in MEM or RPMI, supplemented with 10% FBS with insulin, respectively. The cells were plated in 384-well microplates at a density of 1,000 cells per well in their respective maintenance media. The cells were treated with the compound by a 10-point dose response curve for 6 days, during which, the medium and compound were refreshed once. After the 6-day treatment, the cell viability was assessed using […]-GLO (CTG) reagent. Luminescence was measured with a microplate reader.

Structure (SMILES) | ERα Protein Degradation 1 nM (ERα) | ERα Protein Degradation 10 nM (ERα) | ERα Protein Degradation 100 nM (ERα) | IC50 (MCF7 cells) [nM]
O=C1CCC(N2Cc3sc(C4CCN(CC5CCN(c6ccc([C@@H]7c8ccc(O)cc8CC[C@@H]7c7ccccc7)cc6)CC5)CC4)cc3C2=O)C(=O)N1 (stereo partly drawn) [Compound A10, 3-(2-(1-((1-(4-((1R,2S)-6-hydroxy-2-phenyl-1,2,3,4-tetrahydronaphthalen-1-yl)phenyl)piperidin-4-yl)methyl)piperidin-4-yl)-4-oxo-4,6-dihydro-5H-thieno[2,3-c]pyrrol-5-yl)piperidine-2,6-dione] | D (a percentage degradation value of less than 10%) | D (a percentage degradation value of less than 10%) | D (a percentage degradation value of less than 10%) | 0.82
O=C1CCC(N2Cc3sc(C4CCN(CCCCOc5ccc([C@@H]6c7ccc(O)cc7CC[C@@H]6c6ccccc6)cc5)CC4)cc3C2=O)C(=O)N1 (stereo partly drawn) [Compound A20, 3-(2-(1-(4-(4-((1R,2S)-6-Hydroxy-2-phenyl-1,2,3,4-tetrahydronaphthalen-1-yl)-phenoxy)butyl)piperidin-4-yl)-4-oxo-4,6-dihydro-5H-thieno[2,3-c]pyrrol-5-yl)piperidine-2,6-dione] | D (a percentage degradation value of less than 10%) | D (a percentage degradation value of less than 10%) | D (a percentage degradation value of less than 10%) | 0.05
Cn1nc([C@@H]2CCC(=O)NC2=O)c2ccc(OCC(=O)N3CCN(CCCCOc4ccc([C@@H]5c6ccc(O)cc6CC[C@@H]5c5ccccc5)cc4)CC3)cc21 [Compound B23, (S)-3-(6-(2-(4-(4-(4-((1R,2S)-6-Hydroxy-2-phenyl-1,2,3,4-tetrahydronaphthalen-1-yl)phenoxy)butyl)piperazin-1-yl)-2-oxoethoxy)-1-methyl-1H-indazol-3-yl)piperidine-2,6-dione] | B (a percentage degradation value of less than 50% and no less than 25%) | B (a percentage degradation value of less than 50% and no less than 25%) | D (a percentage degradation value of less than 10%) | 0.22
Cn1nc(C2CCC(=O)NC2=O)c2ccc(OCC(=O)N3CCN(CCCCOc4ccc([C@H]5c6ccc(O)cc6CC[C@H]5c5ccccc5)cc4)CC3)cc21 (stereo partly drawn) [Compound B24, 3-(6-(2-(4-(4-(4-((1S,2R)-6-Hydroxy-2-phenyl-1,2,3,4-tetrahydronaphthalen-1-yl)phenoxy)butyl)piperazin-1-yl)-2-oxoethoxy)-1-methyl-1H-indazol-3-yl)piperidine-2,6-dione] | C (a percentage degradation value of less than 25% and no less than 10%) | C (a percentage degradation value of less than 25% and no less than 10%) | C (a percentage degradation value of less than 25% and no less than 10%) | 66
Cn1nc(C2CCC(=O)NC2=O)c2ccc(N3CCN(CC4CCN(c5ccc([C@@H]6c7ccc(O)cc7CC[C@@H]6c6ccccc6)cc5)CC4)CC3)cc21 (stereo partly drawn) [Compound B25, 3-(6-(4-((1-(4-((1R,2S)-6-Hydroxy-2-phenyl-1,2,3,4-tetrahydronaphthalen-1-yl)-phenyl)piperidin-4-yl)methyl)piperazin-1-yl)-1-methyl-1H-indazol-3-yl)piperidine-2,6-dione] | C (a percentage degradation value of less than 25% and no less than 10%) | B (a percentage degradation value of less than 50% and no less than 25%) | D (a percentage degradation value of less than 10%) | 1.2
Cn1nc(C2CCC(=O)NC2=O)c2ccc(OCC(=O)N3CCN(CC4CCN(c5ccc([C@@H]6c7ccc(O)cc7CC[C@@H]6c6ccccc6)cc5)CC4)CC3)cc21 (stereo partly drawn) [Compound B27, 3-(6-(2-(4-((1-(4-((1R,2S)-6-Hydroxy-2-phenyl-1,2,3,4-tetrahydronaphthalen-1-yl)phenyl)piperidin-4-yl)methyl)piperazin-1-yl)-2-oxoethoxy)-1-methyl-1H-indazol-3-yl)-piperidine-2,6-dione] | D (a percentage degradation value of less than 10%) | B (a percentage degradation value of less than 50% and no less than 25%) | D (a percentage degradation value of less than 10%) | 0.99
O=C1CCC(c2ccc(OCC(=O)N3CCN(CCCCOc4ccc([C@H]5c6ccc(O)cc6CC[C@H]5c5ccccc5)cc4)CC3)cc2)C(=O)N1 (stereo partly drawn) [Compound B44, 3-(4-(2-(4-(4-(4-((1S,2R)-6-Hydroxy-2-phenyl-1,2,3,4-tetrahydronaphthalen-1-yl)phenoxy)butyl)piperazin-1-yl)-2-oxoethoxy)phenyl)piperidine-2,6-dione] | B (a percentage degradation value of less than 50% and no less than 25%) | C (a percentage degradation value of less than 25% and no less than 10%) | C (a percentage degradation value of less than 25% and no less than 10%) | 107
O=C1CCN(c2ccc(OCC(=O)N3CCN(CCCCOc4ccc([C@H]5c6ccc(O)cc6CC[C@H]5c5ccccc5)cc4)CC3)cc2)C(=O)N1 [Compound B45, 1-(4-(2-(4-(4-(4-((1S,2R)-6-Hydroxy-2-phenyl-1,2,3,4-tetrahydronaphthalen-1-yl)phenoxy)butyl)piperazin-1-yl)-2-oxoethoxy)phenyl)dihydropyrimidine-2,4(1H,3H)-dione] | C (a percentage degradation value of less than 25% and no less than 10%) | C (a percentage degradation value of less than 25% and no less than 10%) | C (a percentage degradation value of less than 25% and no less than 10%) | 88
CC1(Cc2ccc(OCCCCN3CCN(C(=O)COc4ccc5c(c4)CN(C4CCC(=O)NC4=O)C5=O)CC3)cc2)C(c2ccc(O)cc2)=Nc2ccc(O)cc21 (stereo not shown) [Compound D3, 3-(5-(2-(4-(4-(4-((5-Hydroxy-2-(4-hydroxyphenyl)-3-methyl-3H-indol-3-yl)-methyl)phenoxy)butyl)piperazin-1-yl)-2-oxoethoxy)-1-oxoisoindolin-2-yl)piperidine-2,6-dione] | D (a percentage degradation value of less than 10%) | D (a percentage degradation value of less than 10%) | D (a percentage degradation value of less than 10%) | 569
Cn1nc(C2CCC(=O)NC2=O)c2ccc(OCC(=O)N3CCN(CCCCOc4ccc(CC5(C)C(c6ccc(O)cc6)=Nc6ccc(O)cc65)cc4)CC3)cc21 (stereo not shown) [Compound D5, 3-(6-(2-(4-(4-(4-((5-Hydroxy-2-(4-hydroxyphenyl)-3-methyl-3H-indol-3-yl)-methyl)phenoxy)butyl)piperazin-1-yl)-2-oxoethoxy)-1-methyl-1H-indazol-3-yl)piperidine-2,6-dione] | C (a percentage degradation value of less than 25% and no less than 10%) | D (a percentage degradation value of less than 10%) | C (a percentage degradation value of less than 25% and no less than 10%) | 136

From patent US20240368121A1, “ESTROGEN RECEPTOR DEGRADERS, PHARMACEUTICAL COMPOSITIONS THEREOF, AND THEIR THERAPEUTIC APPLICATIONS” (BioTheryX, Inc., priority 2021, published 2024)
